pIC50: −log10 of the molar value.

The assay addresses Concanavalin A (Con A), as Con A-ALP conjugate (Canavalia ensiformis, UniProt P02866). The assay is described as follows: competitive electrochemical lectin assay. The class given is binding.

Concanavalin A (Con A), as Con A-ALP conjugate, sequence (P02866 164-281 limits assumed): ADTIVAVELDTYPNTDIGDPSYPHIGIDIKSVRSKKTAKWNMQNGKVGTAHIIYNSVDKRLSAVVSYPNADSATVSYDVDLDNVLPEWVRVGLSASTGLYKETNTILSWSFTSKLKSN
Concanavalin A (Con A), as Con A-ALP conjugate, sequence (P02866 30-148 limits assumed): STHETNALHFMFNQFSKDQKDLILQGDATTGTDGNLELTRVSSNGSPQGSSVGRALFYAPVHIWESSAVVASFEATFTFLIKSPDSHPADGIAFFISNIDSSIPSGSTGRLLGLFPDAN

One may read the pIC50 as −log10 of the IC50, conventionally taken in molar units. Low values mean a high IC50, high ones a low IC50. `CO[C@H]1O[C@H](CO)[C@@H](O)[C@H](O)[C@@H]1O` [methyl α-D-mannopyranoside] had a negative-log IC50 (pIC50) of approximately 4.05.

The record behind these values is PMC3941082 (Journal of electroanalytical chemistry (Lausanne, …, 2014).
